Assay results reported in patent US20230312587A1, “PTERIDINONE COMPOUNDS AND USES THEREOF” (Vertex Pharmaceutical Incorporated, priority 2018, published 2023).

System: β-catenin-TCF-mediated reporter transcription activity in Colo 205 cells
Assay: Colo 205 reporter assay (TCF/LEF luciferase)
Format: cell-based
Settings: Colo 205 TCF/LEF luciferase reporter, five hours after addition of compound; read-out: TCF reporter Colo205 IC50
How it was run: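 Luciferase signal from a TCF/LEF-driven reporter, stably integrated in Colo 205 colon cancer cells, was measured 5 h after compound addition.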

Row | Structure (SMILES) | IC50 [nM]
1 | Cc1nc(N[C@H]2C[C@@H](Cn3nccc3C(F)(F)F)C2)nc2c1NC(=O)[C@H](CO)N2C [Compound 743, (S)-7-(hydroxymethyl)-4,8-dimethyl-2-(((1s,3R)-3-((5-(trifluoromethyl)-1H-pyrazol-1-yl)methyl)cyclobutyl)amino)-7,8-dihydropteridin-6(5H)-one] | 1000 to 5000
2 | Cc1nc(N[C@H]2C[C@H](Oc3cc(F)c(F)c(F)c3)C2)nc2c1NC(=O)[C@H]([C@H](C)OC(C)(C)C)N2C [Compound 745, (S)-7-((S)-1-(tert-butoxy)ethyl)-4,8-dimethyl-2-(((1r,3S)-3-(3,4,5-trifluorophenoxy)cyclobutyl)amino)-7,8-dihydropteridin-6(5H)-one] | 300 to 1000

Same assay, conditions: Homo sapiens, COLO 205, 5 h, Colo 205 TCF/LEF luciferase reporter, five hours after addition of compound; read-out: TCF reporter Colo205 IC50

Row | IC50 [nM] | Structure (SMILES)
3 | < 300 | Cc1nc(N[C@@H]2CC[C@H](Nc3cnc(C(F)(F)F)cn3)C2)nc2c1NC(=O)[C@H](C(C)C)N2C [Compound 735, (S)-7-isopropyl-4,8-dimethyl-2-(((1R,3S)-3-((5-(trifluoromethyl)pyrazin-2-yl)amino)cyclopentyl)amino)-7,8-dihydropteridin-6(5H)-one]
4 | 300 to 1000 | CO[C@H](C)[C@H]1C(=O)Nc2c(C)nc(N[C@@H]3CC[C@H](Nc4cnc(C(F)(F)F)cn4)C3)nc2N1C [Compound 736, (S)-7-((R)—1-methoxyethyl)-4,8-dimethyl-2-(((1R,3S)-3-((5-(trifluoromethyl)pyrazin-2-yl)amino)cyclopentyl)amino)-7,8-dihydropteridin-6(5H)-one]
5 | 1000 to 5000 | Cc1nc(N[C@@H]2CC[C@H](Nc3cnc(C(F)(F)F)cn3)C2)nc2c1NC(=O)[C@H](C)N2C [Compound 737, (S)-4,7,8-trimethyl-2-(((1R,3S)-3-((5-(trifluoromethyl)pyrazin-2-yl)amino)cyclopentyl)amino)-7,8-dihydropteridin-6(5H)-one]
6 | 300 to 1000 | CC[C@H]1C(=O)Nc2c(C)nc(N[C@@H]3CC[C@H](Nc4cnc(C(F)(F)F)cn4)C3)nc2N1C [Compound 738, (S)-7-ethyl-4,8-dimethyl-2-(((1R,3S)-3-((5-(trifluoromethyl)pyrazin-2-yl)amino)cyclopentyl)amino)-7,8-dihydropteridin-6(5H)-one]
7 | 300 to 1000 | CC[C@H]1C(=O)Nc2c(C)nc(NC3CN(C(=O)c4cc(F)c(F)c(F)c4)C3)nc2N1C [Compound 739, (S)-7-ethyl-4,8-dimethyl-2-((1-(3,4,5-trifluorobenzoyl)azetidin-3-yl)amino)-7,8-dihydropteridin-6(5H)-one]
8 | 300 to 1000 | Cc1nc(NC2CN(C(=O)c3cc(F)c(F)c(F)c3)C2)nc2c1NC(=O)[C@H](C)N2C [Compound 740, (S)-4,7,8-trimethyl-2-((1-(3,4,5-trifluorobenzoyl)azetidin-3-yl)amino)-7,8-dihydropteridin-6(5H)-one]
9 | 300 to 1000 | Cc1nc(NCc2cnn(Cc3ccc(C(F)(F)F)nc3)c2)nc2c1NC(=O)[C@H]([C@@H](C)O)N2C [Compound 744, (S)-7-((R)-1-hydroxyethyl)-4,8-dimethyl-2-(((1-((6-(trifluoromethyl)pyridin-3-yl)methyl)-1H-pyrazol-4-yl)methyl)amino)-7,8-dihydropteridin-6(5H)-one]
10 | 1000 to 5000 | C=C1C(=O)Nc2c(C)nc(NCc3cnn(Cc4ccc(C(F)(F)F)nc4)c3)nc2N1C [Compound 749, 4,8-dimethyl-7-methylene-2-(((1-((6-(trifluoromethyl)pyridin-3-yl)methyl)-1H-pyrazol-4-yl)methyl)amino)-7,8-dihydropteridin-6(5H)-one]
11 | < 300 | CC[C@@]1(C)C(=O)N(C)c2cnc(NCc3cnn(Cc4ccc(F)cc4)c3)nc2N1C [Compound I-226]
12 | 300 to 1000 | Cc1nc(N[C@H]2CCN(C(=O)c3cc(F)c(F)c(F)c3)C2)nc2c1NC(=O)[C@H](C(C)C)N2C [Compound I-509]
13 | 300 to 1000 | Cc1nc(N[C@@H]2CCN(C(=O)c3cc(F)c(F)c(F)c3)C2)nc2c1NC(=O)[C@H](C(C)C)N2C [Compound I-541]

Row | Structure (SMILES) | IC50 [nM]
14 | Cc1nc(NCc2cnn(Cc3cc(F)c(F)c(F)c3)c2)nc2c1NC(=O)[C@H](COC(C)(C)C)N2C [Compound 741, (S)-7-(tert-butoxymethyl)-4,8-dimethyl-2-(((1-(3,4,5-trifluorobenzyl)-1H-pyrazol-4-yl)methyl)amino)-7,8-dihydropteridin-6(5H)-one] | 300 to 1000
15 | Cc1nc(NCc2cnn(Cc3ccc(C(F)(F)F)nc3)c2)nc2c1NC(=O)[C@H]([C@H](C)OC(C)(C)C)N2C [Compound 742, (S)-7-((S)-1-(tert-butoxy)ethyl)-4,8-dimethyl-2-(((1-((6-(trifluoromethyl)pyridin-3-yl)methyl)-1H-pyrazol-4-yl)methyl)amino)-7,8-dihydropteridin-6(5H)-one] | 1000 to 5000
16 | COc1c(F)cc(Cn2cc(CNc3nc(C)c4c(n3)N(C)[C@@H]([C@H](C)OC(C)(C)C)C(=O)N4)cn2)cc1F [Compound 746, (S)-7-((S)-1-(tert-butoxy)ethyl)-2-(((1-(3,5-difluoro-4-methoxybenzyl)-1H-pyrazol-4-yl)methyl)amino)-4,8-dimethyl-7,8-dihydropteridin-6(5H)-one] | 300 to 1000

Same assay, conditions: Homo sapiens, COLO 205, 5 h, R-isomer at C2 (corresponding to C2 S-isomer); Colo 205 TCF/LEF luciferase reporter, 5 h; read-out: TCF reporter Colo205 IC50

Row | IC50 [nM] | Structure (SMILES)
17 | 300 to 1000 | Cc1nc(NCc2cnn(Cc3cc(C(F)(F)F)nn3C)c2)nc2c1NC(=O)[C@@H](C1CC1)N2C [Compound I-1498]
18 | ≥ 5000 | CC[C@@H]1C(=O)Nc2cnc(NCc3cnn(Cc4ccc(F)cc4)c3)nc2N1C [Compound I-1634]
19 | 1000 to 5000 | CC[C@@H]1C(=O)Nc2c(C)nc(NCc3cnn(Cc4ccc(C(F)(F)F)nc4)c3)nc2N1C [Compound I-1635]
20 | 1000 to 5000 | Cc1nc(NCc2cnn(Cc3ccc(C(F)(F)F)nc3)c2)nc2c1NC(=O)[C@@H](C)N2C [Compound I-1636]
21 | 1000 to 5000 | Cc1nc(NCc2cnn(Cc3ccncc3C(F)(F)F)c2)nc2c1NC(=O)[C@@H](C)N2C [Compound I-1637]
22 | 1000 to 5000 | CCC[C@@H]1C(=O)Nc2c(C)nc(NCc3cnn(Cc4ccc(C(F)(F)F)nc4)c3)nc2N1C [Compound I-1638]
23 | 1000 to 5000 | Cc1nc(NCc2cnn(Cc3ccc(C(F)(F)F)nc3)c2)nc2c1NC(=O)[C@@H](C1CC1)N2C [Compound I-1639]
24 | ≥ 5000 | CC(=O)N(Cc1cnn(Cc2ccc(C(F)(F)F)nc2)c1)c1nc(C)c2c(n1)N(C)[C@H](C)C(=O)N2 [Compound I-1640]
25 | ≥ 5000 | Cc1nc(NCc2cnn(Cc3ccc(F)nc3)c2)nc2c1NC(=O)[C@@H](C1CC1)N2C [Compound I-1641]
26 | 1000 to 5000 | Cc1nc(NCc2cnn(Cc3ccc(OC(F)F)nc3)c2)nc2c1NC(=O)[C@@H](C(C)C)N2C [Compound I-1642]
27 | 1000 to 5000 | Cc1cc(F)ncc1Cn1cc(CNc2nc(C)c3c(n2)N(C)[C@H](C(C)C)C(=O)N3)cn1 [Compound I-1643]
28 | 1000 to 5000 | Cc1nc(NCc2cnn(Cc3ccc(Cl)nc3)c2)nc2c1N(C)C(=O)[C@@H](CCO)N2C [Compound I-1644]
29 | 1000 to 5000 | Cc1nc(NCc2cnn(Cc3ccc(C(F)(F)F)nc3)c2)nc2c1NC(=O)[C@@H](CC(F)(F)F)N2C [Compound I-1645]
30 | ≥ 5000 | CC[C@@H]1C(=O)Nc2cnc(NCc3cnn(Cc4ccc(C(F)(F)F)nc4)c3)nc2N1C(C)C [Compound I-1646]
31 | 1000 to 5000 | COCC[C@@H]1C(=O)Nc2c(C)nc(NCc3cnn(Cc4ccc(C(F)(F)F)nc4)c3)nc2N1C [Compound I-1647]
32 | ≥ 5000 | COCC[C@@H]1C(=O)Nc2c(C)nc(NCc3cnn(Cc4cc(C(F)(F)F)nn4C)c3)nc2N1C [Compound I-1648]
33 | ≥ 5000 | Cc1nc(NCc2cnn(Cc3ccnc(C#N)c3)c2)nc2c1NC(=O)[C@@H](C)N2C [Compound I-1649]
34 | 1000 to 5000 | Cc1nc(N[C@H]2C[C@H](Oc3cc(F)c(F)c(F)c3)C2)nc2c1NC(=O)[C@@H](CO)N2C [Compound I-1650]

The next lines start with the compound.

Row | Structure (SMILES) | IC50 [nM]
35 | C[C@@H]1C(=O)N(C)c2cnc(NCc3cnn(Cc4ccc(F)cc4)c3)nc2N1C [Compound I-809] | 300 to 1000
36 | CCN1c2nc(NCc3cnn(Cc4ccc(F)cc4)c3)ncc2N(C)C(=O)[C@H]1C [Compound I-860] | < 300
37 | Cc1nc(NCc2cnn(Cc3ccc(F)cc3)c2)nc2c1N(C)C(=O)[C@@H](C)N2C [Compound I-866] | 300 to 1000
38 | C[C@@H]1C(=O)Nc2cnc(NCc3cnn(Cc4cc(F)c(F)c(F)c4)c3)nc2N1C [Compound I-896] | 300 to 1000
39 | CCC[C@@H]1C(=O)N(C)c2cnc(NCc3cnn(Cc4ccc(F)cc4)c3)nc2N1C [Compound I-984] | 300 to 1000
40 | CCN1C(=O)[C@@H](C)N(CC)c2nc(NCc3cnn(Cc4ccc(F)cc4)c3)ncc21 [Compound I-985] | < 300
41 | CC[C@@H]1C(=O)N(CC)c2cnc(NCc3cnn(Cc4ccc(F)cc4)c3)nc2N1C [Compound I-987] | < 300
42 | CCN1C(=O)[C@@H](C)N(C(C)C)c2nc(NCc3cnn(Cc4ccc(F)cc4)c3)ncc21 [Compound I-1144] | 300 to 1000
43 | CC[C@@H]1C(=O)N(C)c2cnc(NCc3cnn(Cc4ccc(F)cc4)c3)nc2N1C(C)C [Compound I-1146] | 300 to 1000
44 | COc1c(F)cc(Cn2cc(CNc3nc(C)c4c(n3)N(C)[C@H](C)C(=O)N4)cn2)cc1F [Compound I-1205] | < 300
45 | Cc1nc(NCc2cnn(Cc3cc(F)c(F)c(F)c3)c2)nc2c1N(C)C(=O)[C@@H](C)N2C [Compound I-1229] | < 300
46 | CCC[C@@H]1C(=O)N(C)c2cnc(NCc3cnn(Cc4cc(F)c(F)c(F)c4)c3)nc2N1C [Compound I-1348] | < 300
47 | CCN1C(=O)[C@@H](C)N(CC)c2nc(NCc3cnn(Cc4cc(F)c(F)c(F)c4)c3)ncc21 [Compound I-1349] | < 300
48 | Cc1nc(NCc2cnn(Cc3ccc(C(F)(F)F)nc3)c2)nc2c1N(C)C(=O)[C@@H](C)N2C [Compound I-1363] | 300 to 1000
49 | CCN1C(=O)[C@@H](C)N(C(C)C)c2nc(NCc3cnn(Cc4cc(F)c(F)c(F)c4)c3)ncc21 [Compound I-1463] | < 300
50 | CC[C@@H]1C(=O)N(C)c2cnc(NCc3cnn(Cc4cc(F)c(F)c(F)c4)c3)nc2N1C(C)C [Compound I-1465] | < 300
